For one data set, the system named is NSCLC tumor. Nature of the data set: H1299.3 15-mer in vivo tumor targeting. The protocol: (§1) A modified MGS peptide (SEQ ID NO: 31) that fuses amino acids 1-5 and 11-20 of the original MGS peptide: LQWRRNFGVWARYRL (SEQ ID NO: 31) was assessed.
The nature of data set [1]: Solubility of H1299.3 15-mer. The class given is physicochemical. Particulars: effect of acetylation.
In data set [2] the test system is NSCLC and other tumor cells. Nature of the data set: Peptide binding/internalization in tumor cell lines. The data set is classed as cell-based, human. The procedure:
(§2) Flow Cytometry. Biotinylated peptide was conjugated to streptavidin-R-phycoerythrin (1:1) for 30 min at RT. The remaining binding sites on streptavidin were quenched with RPMI 1640 and solution diluted to 25 nM. Tumor cells were grown to 90% confluency in a 12 well plate, then incubated with 500 μl peptide-dye conjugate for 1 hour at 37 C. After 1 hour, peptide was removed and the cells were washed 3× with PBS for 5 min, 2× with acid rinse, and 1×PBS rinse. Added 300 μl trypsin until cells lifted then added 700 μl RPMI+5% FBS to inactivate the trypsin. Cells were transferred to a flow tube, and put on ice in the dark. Flow cytometry was run on BD FACSCelesta and data were analyzed on Flowing software. A region containing <5% of the cells in the negative control is established and the McGuire score is calculated for each sample by multiplying the % of positive cells by the fluorescence intensity.
(§3) For the flow cytometry experiments, cells are treated with a peptide (e.g., a MGS peptide) that has a dye on it for one hour. If the peptide enters the cell(s), the dye will also enter the cell(s) (see, FIG. 11). Next, the cells are washed and placed in a tube to run flow cytometry. The flow cytometer can measure the brightness of 10,000 or more individual cells.
Phage blocking was used as a control. HCC15.2 was internalized by a specific panel of cell lines and not others.

The subject of the next data set is normal HBEC's. Put plainly: Flow cytometry binding of peptide-dye conjugate, normal HBEC. The data set is classed as cell-based. The protocol:
as §2, §3

Another data set concerns H1299 cells. Nature of the data set: Confocal microscopy, organelle co-localization. The settings on record: over time. The data set is classed as cell-based, human. The procedure:
Confocal Microscopy. Plasmids with organelle specific markers labeled with GFP were purchased from Addgene and electroporated into H1299 cells. After G418 selection, GFP-labeled tumor cells were plated on 8 well chamber slides on the day previous to the study. Biotinylated peptide was conjugated to streptavidin-AlexaFluor 555 (1:1) for 30 min at RT and quenched with RPMI, then added to the wells at 50 nM. After 1 hour incubation cells were washed for 5 min 3× with PBS, 2× acid rinses, and 1×PBS rinse. Cells were fixed in 2% formaldehyde for 10 min, washed with PBS, stained with DAPI in mounting media and coverslip was added. Microscopy was acquired on a Zeiss LSM 700 with a Pln Apo 63×/1.4 oil DIC III objective. Compressed images were obtained using ImageJ software maximal intensity projections.
For the microscopy experiments, cells are treated with a peptide (e.g., a MGS peptide) that has a dye on it for one hour. If the peptide enters the cell(s), the dye will also enter the cell(s) (see, FIG. 1). Next, the cells are washed and fixed to glass plate. Other parts of the cell (e.g., cell membrane, organelles or nucleus) are stained. Fluorescent microscopy is performed to assess the dyes in the cells. Confocal microscopy is used to take a series of sliced images that can be used to build a 3D picture (like an MRI).

In the next data set the test system is LC line H1299. Nature of the data set: Flow cytometry binding of peptide-dye conjugate, H1299. The data set is classed as cell-based, human. The procedure: as §2, §3
In general terms: In flow cytometry, cells or beads pass a laser one at a time.

In data set [3] the test system is cancer cells. Nature of the data set: H1299.3 15-mer cell binding and autophagosome co-localization. The class given is cell-based. The protocol:
as §1

For data set [4], the system named is cancer cells. Put plainly: Cancer cell killing assay. The class given is cell-based. Particulars: unconjugated. The protocol: A cancer cell killing assay was performed (see, FIG. 22). Cancer cells were put into a dish. After 24 hours, cells were given different doses of peptide-saporin for 1 hour. Peptide-saporin was washed off and cells were left for 72 more hours. Assay to measure live cells performed.

Five compounds from US12576157B2, “Peptide saporin conjugate for the treatment of cancer” (SRI International, priority 2017, dated 2026) can be followed below.

Residues, ends and D or L forms follow the SMILES beside them.

`CC(=O)N[C@@H](CC(C)C)C(=O)N[C@@H](CCC(N)=O)C(=O)N[C@@H](Cc1c[nH]c2ccccc12)C(=O)N[C@@H](CCCNC(=N)N)C(=O)N[C@@H](CCCNC(=N)N)C(=O)N[C@@H](CC(N)=O)C(=O)N[C@@H](Cc1ccccc1)C(=O)NCC(=O)N[C@H](C(=O)N[C@@H](Cc1c[nH]c2ccccc12)C(=O)N[C@@H](C)C(=O)N[C@@H](CCCNC(=N)N)C(=O)N[C@@H](Cc1ccc(O)cc1)C(=O)N[C@@H](CCCNC(=N)N)C(=O)N[C@@H](CC(C)C)C(=O)O)C(C)C` [1299.3 Ac-15mer] (Ac-LQWRRNFGVWARYRL-OH; N-terminus and C-terminus assumed): the degradation in vivo entry in the data set with NSCLC tumor (effect of acetylation) is on record as “protects degradation in vivo”. Besides, the solubility entry in data set [1] is listed as “improves solubility”.

Take FHAVPQSFYT [SEQ ID NO: 3]: the “effect of acetylation on binding of the truncated peptide” value in data set [2] (N-terminal acetylation) is recorded as “improves binding”.

In the case of FHAVPQSFYTAP [HCC15.2], the results for the “binding by flow cytometry” value with normal HBEC's and in the data set on LC line H1299 were “does not bind” and “binds”, respectively. In addition, the lysosome localization entry in the data set on H1299 cells is “accumulates in the lysosome over time”. Also, the “binding to cell line panel” value in data set [2] is “binds to a specific subset of NSCLC and other tumor cells”. Besides, the values for the internalization entry in data set [2] (at 4° C.) and in data set [2] (treating with trypsin 2 min before adding peptide) were “does not internalize” and “no internalization”, respectively. Further, the “effect of tetramerization on receptor mediated internalization” value in data set [2] (tetramer compared to monomer) is given as “does not significantly improve”.

With LQWRRNFGVWARYRL [SEQ ID NO: 31], the “tumor targeting in vivo” value with NSCLC tumor (NSCLC tumor in an animal) is listed as “hones to a NSCLC tumor”. Also, the “reduction in heart, lung and kidney tumors” value in the data set on NSCLC tumor (in vivo) is above 2 fold. Also, in the data set on cancer cells [3] (cancer versus normal cell binding), the cancer specificity result is reported as “maintains its cancer specificity”. In the data set on cancer cells [3] (versus original peptide), the “trafficking to the autophagosome” value was “increases its ability to traffic to the autophagosome”.

Regarding “saporin: ribosome inactivating protein (RIP, 34 KD) with no cell entry domain; plant toxin”, in the data set on cancer cells [4], the cell entry entry is “did not enter the cell by itself”.
